Holding throughout (assay type): in vivo, human
Test [1] is described as follows: Sensory evaluation: sucrose vs sweetened fiber vs stevia extract (Example 9). Particulars: score 1 to 100; 10% sucrose, 10% sweet fiber, 0.05% RebM; FIG. 7. Here is the method:
A sensory evaluation session was conducted at BioFoodTech, to determine the taste difference between sucrose, the sweetened fiber of the present disclosure and stevia extract solutions. A group of twelve panelists formed a panel for the sensory evaluation. The ranking test measured the overall difference and intensity score for sensory attributes, including the strength of flavor, bitterness, liquorice taste and off-flavor.
A group of experienced panelists from BioFoodTech formed a panel for a sensory evaluation session to determine the quality difference between the sweet product samples.
Three 250 mL samples were prepared (10% solutions of sucrose, 10% the sweetened fiber of the present disclosure and 0.05% solution of Rebaudioside M (RebM). A sensory code consisting of a random 3-digit number was assigned to each sample.
Twelve experienced panelists were divided into two groups. A complete block design was chosen for the sensory evaluation of the […], including a ranking test used to determine the overall difference and intensity scoring for four […] attributes (strength of flavor, bitterness, liquorice taste and off-flavor). The four coded samples were presented to each panelist in a balanced order throughout the evaluation.
In the individual attributes evaluation, the panelists were asked to quantify the difference of specific attributes among the four samples by scoring from 1 to 100 (1 for none and 100 for the strongest, see FIG. 7) to reflect the intensity of the attribute best.

Test [2] is described as follows: Comparative sensory study: sweetened fiber vs mixture of sweetener and fiber vs sweetener alone (Example 8). Particulars: 9-point hedonic scale, 10% in water, N=12, FIG. 6. Here is the method: The sensory characteristics of the sweetened fiber of the present disclosure were evaluated against a simple mixture of dietary fiber and stevia extract or stevia extract alone. The preference towards the sweetened fiber of the present disclosure, a mixture of dietary fiber and stevia extract, or stevia extract alone was determined. Any sensory difference between the sweetened fiber of the present disclosure versus a mixture of dietary fiber and stevia extract was evaluated.
Study design: randomized crossover. Twelve adults were recruited for the study. Samples were evaluated for pleasantness using 9-point hedonic scales (Peryam, D. R., Girardot, N. F. (1952). Advanced taste test method. Food Engineering, 24, 58-61, 194.). Unstructured scales such as visual analogue scales (VAS) are also used for the sensory evaluation of food (Baten, W. D. (1946). Organoleptic tests pertaining to apples and pears. Journal of Food Science, 11, 84-94.). The intensity of off-taste, bitterness and sweet aftertaste sweetness were determined using a 10-point scale. […]
Data analysis: The normality of the data was evaluated using D'Agostino & Pearson omnibus normality test. If the data didn't follow a normal distribution, the statistical significance of preference and intensity was assessed with the Kruskal-Wallis test using an alpha criterion of 5%. […]

A short description of test [3]: Double-blinded randomized crossover sensory study: sweetened fiber vs sucrose (Example 10). Particulars: 10% solution. As for the experimental part: The sensory characteristics of an example of the sweetened fiber of the present disclosure were evaluated and compared to those of sucrose. Any preference towards the exemplary sweetened fiber of the present disclosure or sucrose solutions was determined. The sensory acceptance of the exemplary sweetened fiber of the present disclosure and sucrose was evaluated. Study design: double-blinded, randomized crossover. Sixty adults (18-65 years old, 30 males and 30 females) were recruited for the study. […] Samples were evaluated for pleasantness, taste, flavour, sweetness, and mouthfeel using 9-point hedonic scales ([…]. (1952). Advanced taste test method. Food Engineering, 24, 58-61, 194). […] The intensity of sweetness, bitterness, and metallic taste was determined using a 100 mm Visual Analogue Scale (VAS). […] Data analysis: The preference towards either blinded samples of 10% solution of Sucrose or 10% solution of the exemplary sweetened fiber of the present disclosure was determined with a forced paired preference test ([…]., Heymann, H. (2010). Sensory evaluation of food. Springer, New York, NY.). […] If there was an effect of sex (P≤0.05), the data was analyzed separately for males and females. If there was no effect of sex (P>0.05), the pooled data for males and females was analyzed with the Friedman test followed by Dunn's multiple comparisons. […]

Test [4] is described as follows: Sensory testing by a panel of twelve tasters (Example 4). Particulars: 10% solution. As for the experimental part: The taste of the sweetened fiber of the present disclosure prepared according to Example 1 was assessed by an external third party using a panel of tasters. A group of twelve panelists formed a panel for the sensory evaluation. The ranking test was used to measure the overall difference and intensity score for four sensory attributes, flavor, aftertaste, and mouthfeel. Each panelist evaluated all four samples. […] Sample Preparation: Two 250 mL samples were prepared (10% solutions of sucrose (control) and corn sweetened fiber of Example 1-1. A sensory code consisting of a random 3-digit number was assigned to each sample. Taste Session: The sensory evaluation was carried out at BioFoodTech's Sensory Lab. Twelve experienced panelists were divided into two groups. A complete block design was chosen for the sensory evaluation of the four samples, including a ranking test used to determine the overall difference. Statistical Analysis for the Data: For the individual attributes, Analysis of Variance (ANOVA) and the Tukey-Kramer HSD test were used to analyze the difference among sample means of individual attributes at a 5% significance level. For the Ranking test, a Friedman-type statistic was used to determine if there was a statistically significant difference among samples at a 5% significance level. All statistical analyses were done using the JMP®8 (SAS Institute Inc., Cary, NC).

As for `C=C1C[C@@]23CC[C@H]4[C@@](C)(CCC[C@@]4(C)C(=O)O[C@@H]4O[C@H](CO)[C@@H](O)[C@H](O[C@@H]5O[C@H](CO)[C@@H](O)[C@H](O)[C@H]5O)[C@H]4O[C@@H]4O[C@H](CO)[C@@H](O)[C@H](O)[C@H]4O)[C@@H]2CC[C@]1(O[C@@H]1O[C@H](CO)[C@@H](O)[C@H](O[C@@H]2O[C@H](CO)[C@@H](O)[C@H](O)[C@H]2O)[C@H]1O[C@@H]1O[C@H](CO)[C@@H](O)[C@H](O)[C@H]1O)C3` [Rebaudioside M], in test [1], the “Mean score, bitterness” value is on record as “highest”; the “Mean score, liquorice taste” value is listed as “highest”; the “Mean score, off-flavor” value is “highest”; the “Mean score, strength of flavor” value was “highest”. The Pleasantness entry in test [2] is “no differences”.

Consider `OC[C@H]1O[C@@](CO)(O[C@H]2O[C@H](CO)[C@@H](O)[C@H](O)[C@H]2O)[C@@H](O)[C@@H]1O` [sucrose], for which the “Mean acceptance values on hedonic scales” value in test [3] is reported as “neutral or above the neutral”. In test [4], the “Rank mean (ranking taste preference)” value is 2.58 and the “RankSum (ranking taste preference)” value was 31. In test [4] (n = 12), this molecule gave a Mouthfeel of 73%, an Off-flavour of 0%, a Sweetness of 100% and a Taste preference of 98%.

Values taken from US20260101916A1, “SWEETENED FIBER AND METHODS THEREOF” (ZeroIN Foods Inc., priority 2022, published 2026).
